Results as given in US20050043369A1, “Bactericidal antimicrobial methods and compositions for use in treating gram positive infections” (Protez Pharmaceuticals Inc., priority 2000, published 2005).
Read-outs that look alike come from different tables or passages of the source.

Legend:
[1] = system: S. aureus SA1199; test: Checkerboard two-fold broth microdilution, MIC and MBC; type: cell-based, Staphylococcus aureus; conditions: for MBC^b = MBC in the presence of 5 μg/ml of INF 401: plus 5 μg/ml INF 401
Experimental: Checkerboard titration was performed with INF 401 and erythromycin to quantitate the effects of the combination on Staphylococcal growth using two-fold serial broth microdilution. After overnight incubation, cells were transferred to fresh medium, as described above, to determine those combinations that were bactericidal to S. aureus. […] Although not determined according to NCCLS recommended procedures ([…]), the inventors considered this the Minimal Bactericidal Concentration (MBC).
The inventors next evaluated whether INF 401 was bactericidal in combination with other protein synthesis inhibitors which are bacteriostatic to S. aureus. Checkerboard studies were performed with two-fold dilutions of each antibiotic in combination with INF 401 using the assay described above in Example 2. After overnight incubation the MIC of each antibiotic was determined by visualization of bacterial growth. […] The MBC of each antibiotic was determined as described in Example 2 in the absence or presence of INF 401.

[2] = system: S. aureus (SA1199); test: Time kill studies (CFU counts); type: cell-based, Staphylococcus aureus
Experimental: FIG. 5A, FIG. 5B and FIG. 5C. […]
The initial inoculum number was determined by plating an appropriate dilution on LB agar plates and determining the number of colony forming units (CFUs). At different time points an aliquot was withdrawn from each tube and cell viability was determined by plating an appropriate dilution and counting CFUs after overnight incubation.

[3] = system: S. pneumoniae; test: Bactericidal activity (MBC) of translational inhibitors with or without INF 401 in S. pneumoniae; type: cell-based, Streptococcus pneumoniae; conditions: antibiotic alone
Description: It would be desirable that an antibiotic potentiator of the present invention is active not only in S. aureus but also in other bacterial pathogens. The inventors have begun studies to investigate whether INF 401 can also potentiate the activity of translational inhibitors in another Gram positive pathogen, S. pneumoniae.

[4] = system: S. aureus SA1199; test: Checkerboard two-fold broth microdilution, MIC and MBC; type: cell-based, Staphylococcus aureus; conditions: Table 2, plus 10 μg/ml INF 402, unit not given
[5] = system: S. aureus strain SA1199; test: Screening and titration of potentiators with erythromycin (4 μg/ml), viability read by transfer to fresh medium; type: cell-based, Staphylococcus aureus; conditions: for lowest concentration at which the potentiator is active (titration in the presence of erythromycin): erythromycin 4 μg/ml, S. aureus SA1199; for effect on viability of S. aureus in combination with a bacteriostatic concentration of erythromycin: library screen hit; for Activity (minimal concentration required to kill 99.9% of S. aureus): in the presence of 4 μg/ml erythromycin
Experimental: In an exemplary screening assay, in order to identify a candidate acyl hydrazide, oxy amide or 8-hydroxy quinoline composition as an antibacterial agent potentiator, the S. aureus strain SA1199 may be used. The procedure for screening is as follows: logarithmically growing S. aureus SA1199 are inoculated to a final OD600 of 0.002 into 150 μl of LB medium containing a bacteriostatic concentration of an antimicrobial agent for that strain, for example, erythromycin (4 μg/ml) at four times the Minimal Inhibitory
Concentration (MIC). […] In preliminary studies the inventors determined that under these conditions up to 2000 viable cells were transferred after incubation with erythromycin. As confirmed by broth microdilution, at least a 1000-fold reduction in viability was required to see no visible growth after 20 hours. Acyl hydrazide, oxy amide or 8-hydroxy quinoline antibiotic potentiators may be identified as those compounds that increase the bactericidal effect of the erythromycin.
The macrolide erythromycin was chosen in the initial screen for two reasons: first, its mechanism of inhibition of protein synthesis is well characterized and second, as a macrolide, erythromycin is representative of an expanding class of agents which includes the second most prescribed antibiotic, azithromycin.
In preliminary studies the inventors determined that under these conditions up to 2000 viable cells were transferred after incubation with erythromycin. As confirmed by broth microdilution, at least a 1000-fold reduction in viability was required to see no visible growth after 20 h.
Next the activity of the hit compounds was compared by titration of the compounds in the presence of erythromycin at 4 μg/ml as described above.
(§1) Activity of the compound is depicted as the minimal concentration required to kill 99.9% of S. aureus in the presence of 4 μg/ml erythromycin.

[6] = system: S. aureus ATCC 29213; test: MBEC assay system, checkerboard: planktonic MIC and biofilm MBEC; type: cell-based, Staphylococcus aureus; conditions: INF 401 at 0.3 μg/ml where in label
Experimental: These studies were performed via the method of Dr. Howard Ceri (University of Calgary), who recently developed a method for the routine determination of the antibiotic susceptibility of biofilms. To date, the inventors have tested the effect of the combination of INF 401 on the ability of either clindamycin or rifampin to eradicate S. aureus biofilms in vitro. S. aureus ATCC 29213 was selected for the study as previous studies of this isolate as a biofilm had been conducted and the isolate served as a quality assurance organism for NCCLS standardization of antibiotic testing. Biofilms were formed as previously described for this organism (Ceri et al., 1999) using the MBEC™ assay system. Checkerboard studies were performed with each antibiotic versus INF 401.

[7] = system: S. aureus SA 29213; test: 55Fe transport assay (intracellular iron accumulation); type: cell-based, Staphylococcus aureus; conditions: compound at 2 μg/ml; S. aureus SA 29213
Experimental: Next, investigated was whether INF 401 affects intracellular iron accumulation. An ^55Fe transport assay (modified from Sebulsky, 2000) was used to examine the ability of INF 401 to transport iron inside the cell. Briefly, exponentially growing cells were diluted to OD600 0.1 in LB, incubated with ^55FeCl3 for 30 min at 37° C., washed and counted in scintillation fluid using the tritium channel of a scintillation system. […] However, the presence of INF 401 in either the absence or presence of antibiotic led to a dramatic increase in iron accumulation (209,215 and 231,621 DPM, respectively).
as §1

[8] = Staphylococcus aureus, SA1199, read-out: MBC^a = MBC in the absence of INF 401, Table 1, S. aureus SA1199, antibiotic alone, unit inferred
[9] = Staphylococcus aureus, SA1199, read-out: MBC^a = MBC in the absence of INF 401, Table 2, S. aureus SA1199, antibiotic alone, unit inferred
[10] = Table 1, S. aureus SA1199, unit not given
[11] = Table 2, S. aureus SA1199, unit inferred

CC[C@H]1OC(=O)[C@H](C)[C@@H](O[C@H]2C[C@@](C)(OC)[C@@H](O)[C@H](C)O2)[C@H](C)[C@@H](O[C@@H]2O[C@H](C)C[C@H](N(C)C)[C@H]2O)[C@](C)(O)C[C@@H](C)C(=O)[C@H](C)[C@@H](O)[C@]1(C)O [Erythromycin]
bactericidal concentration of antibiotic alone as multiple of MIC ([1]; S. aureus, absence of INF 401): 16-32 ×MIC
Minimal Bactericidal Concentration (greater than 1000-fold decrease in cell viability), antibiotic alone ([1]; S. aureus, not by NCCLS procedure): 16 to 32 µg/mL
MIC ([1]; Staphylococcus aureus, SA1199): 1 µg/mL
MBC [1, 8]: 16 to 32 µg/mL
MBC [1, 9]: > 8 µg/mL
MBC^b = MBC in the presence of 5 μg/ml of INF 401 [1, 10]: 1
MIC [1, 11]: 1 µg/mL
effect of single agent on growth of S. aureus in time kill study ([2]; INF 401 5 μg/ml alone, erythromycin 2×MIC alone): bacteriostatic
bactericidal concentration in the absence of INF 401 as multiple of MIC [3]: 1 ×MIC
MBC^b = MBC in the presence of 10 μg/ml of INF 402 [4]: 1

CC[n+]1c(-c2ccccc2)c2cc(N)ccc2c2ccc(N)cc21 [Ethidium bromide]
MIC ([1]; Staphylococcus aureus, SA1199): 16 µg/mL
MBC [1, 8]: > 128 µg/mL
MBC [1, 9]: > 128 µg/mL
MBC^b = MBC in the presence of 5 μg/ml of INF 401 [1, 10]: >128
MIC [1, 11]: 16 µg/mL
MBC^b = MBC in the presence of 10 μg/ml of INF 402 [4]: >128

COc1ccc(C(=O)N(O)c2ccccc2)cc1 [INF 402]
lowest concentration at which the potentiator is active (titration in the presence of erythromycin) [5]: 1.25 to 2.5 µg/mL
effect on viability of S. aureus in combination with a bacteriostatic concentration of erythromycin [5]: reduced the viability

Cc1cc(C)c2ccc(NN)nc2c1O [INF 406]
lowest concentration at which the potentiator is active (titration in the presence of erythromycin) [5]: 0.6 µg/mL
effect on viability of S. aureus in combination with a bacteriostatic concentration of erythromycin [5]: reduced the viability

CO[C@H]1/C=C/O[C@@]2(C)Oc3c(C)c(O)c4c(O)c(c(/C=N/N5CCN(C)CC5)c(O)c4c3C2=O)NC(=O)/C(C)=C\C=C\[C@H](C)[C@H](O)[C@@H](C)[C@@H](O)[C@@H](C)[C@H](OC(C)=O)[C@@H]1C [Rifampin]
MIC ([1]; Staphylococcus aureus, SA1199): 0.009 µg/mL
MBC [1, 8]: 0.06 µg/mL
MBC^b = MBC in the presence of 5 μg/ml of INF 401 [1, 10]: 0.0019
MIC ([6]; Staphylococcus aureus, ATCC29213, planktonic population): 0.0075 µg/mL
MBEC ([6]; biofilm population): >2 µg/mL

CN(C)[C@@H]1C(O)=C(C(N)=O)C(=O)[C@@]2(O)C(O)=C3C(=O)c4c(O)cccc4[C@@](C)(O)[C@H]3C[C@@H]12 [Tetracycline]
MBC [1, 8]: 8 µg/mL
MBC [1, 9]: > 8 µg/mL
MBC^b = MBC in the presence of 5 μg/ml of INF 401 [1, 10]: 0.25
reduction in cell viability, antibiotic in combination with INF 401 ([2]; antibiotic 1×MIC + 5 μg/ml INF 401): 3 log10
bactericidal concentration in the absence of INF 401 as multiple of MIC [3]: 4 ×MIC
MBC^b = MBC in the presence of 10 μg/ml of INF 402 [4]: 2

COc1cc(Cc2cnc(N)nc2N)cc(OC)c1OC [Trimethroprim]
MBC^a = MBC in the absence of INF 401 ([1]; Table 1, S. aureus SA1199, antibiotic alone, unit inferred): 32 µg/mL
MBC^b = MBC in the presence of 5 μg/ml of INF 401 [1, 10]: 8
MIC [1, 10]: 1

CCOc1cccc(/C=N/NC(=O)Cc2ccc(C)cc2)c1O [drawing 37]
Activity (minimal concentration required to kill 99.9% of S. aureus) [5]: >10 µg/mL
^55Fe Accm. [7]: 1,200 DPM

CCOc1cccc(/C=N/NC(=O)Cc2ccc(C)cc2)c1O [drawing 38]
Activity (minimal concentration required to kill 99.9% of S. aureus) [5]: 1.25 µg/mL
^55Fe Accm. [7]: 17,400 DPM
